Assay results as given in EP0094564A2, “Azolyl-methyl oxiranes, their preparation and use as medicaments and plant protecting agents” (BASF Aktiengesellschaft, priority 1982, dated 1983).
Converted amounts (≈) assume the structure as drawn.

How the values were obtained:
Abs. corym. 1 = assay: Agar dilution test, minimal inhibitory concentration in vitro; format: cell-based; conditions: read-out: Minimale Hemmkonzentration (MHK) Abs. corym. 1
Text: (§1) Die Wirkung gegen Dermatophyten, Bakterien und Protozonen kann nach Methoden, wie sie beispielsweise in P. Klein, Bakteriologische Grundlagen der chemotherapeutischen Laboratoriumspraxis, Springer-Verlag Berlin, 1957, beschrieben wird, aufgezeigt werden. Die überraschende Wirkung gegenüber Hefen wurde im Pseudomyzel- und Myzelphasentest mit Candida albicans nachgewiesen (vgl. DE-OS 30 10 093). Es wurde geprüft, welche minimalen Hemmkonzentrationen (MHK-Werte) im Agardilutionstest erreicht werden. In der Tabelle 1 sind die Ergebnisse zusammengefaßt.

Aps.fum. 2 = assay: as above; format: cell-based; conditions: read-out: Minimale Hemmkonzentration (MHK) Aps.fum. 2
Text: as §1

E.coli muta-flor = assay: as above; format: cell-based; conditions: Escherichia coli, read-out: Minimale Hemmkonzentration (MHK) E.coli muta-flor
Text: as §1

Microsp. ferrug. 5 = assay: as above; format: cell-based; conditions: read-out: Minimale Hemmkonzentration (MHK) Microsp. ferrug. 5
Text: as §1

Mucor pus. 6 = assay: as above; format: cell-based; conditions: read-out: Minimale Hemmkonzentration (MHK) Mucor pus. 6
Text: as §1

Staph. aur. SG 511 = assay: as above; format: cell-based; conditions: read-out: Minimale Hemmkonzentration (MHK) Staph. aur. SG 511
Text: as §1

Strept. faec. 8043 = assay: as above; format: cell-based; conditions: read-out: Minimale Hemmkonzentration (MHK) Strept. faec. 8043
Text: as §1

Cand.alb. H = assay: Candida albicans pseudomycelium/mycelium phase test, MIC; format: cell-based; conditions: in vitro, column H, read-out: Minimale Hemmkonzentration (MHK) Cand.alb. H
Text: as §1

Cand.alb. M = assay: Candida albicans pseudomycelium/mycelium phase test, MIC (column M); format: cell-based; conditions: in vitro, read-out: Minimale Hemmkonzentration (MHK) Cand.alb. M
Text: as §1

Trichom. vag. = assay: Minimal inhibitory concentration in vitro (protozoa); format: cell-based; conditions: read-out: Minimale Hemmkonzentration (MHK) Trichom. vag.
Text: as §1

[1] = tested on: Weizenbraunrost (Puccinia recondita); assay: Versuch 2: activity against wheat brown rust on wheat seedlings; format: in vivo; conditions: 0,025; 0,006; 0,0015 %ige Spritzbrühen; sprayed 24 h after inoculation; assessed after 8 days; value given as 'beispielsweise'
Description: Blätter von in Töpfen gewachsenen Weizensämlingen der Sorte "Jubilar" wurden mit Sporen des Braunrostes (Puccinia recondita) bestäubt. Danach wurden die Töpfe für 24 Stunden bei 20 bis 22°C in eine Kammer mit hoher Luftfeuchtigkeit (90 bis 95 %) gestellt. Während dieser Zeit keimten die Sporen aus und die Keimschläuche drangen in das Blattgewebe ein. Die infizierten Pflanzen wurden anschließend mit wäßrigen Spritzbrühen, die 80 % Wirkstoff und 20 % Emulgiermittel in der Trockensubstanz enthielten, tropfnaß gespritzt. Nach dem Antrocknen des Spritzbelages wurden die Versuchspflanzen im Gewächshaus bei Temperaturen zwischen 20 und 22°C und 65 bis 70 % relativer Luftfeuchte aufgestellt. Nach 8 Tagen wurde das Ausmaß der Rostpilzentwicklung auf den Blättern ermittelt.

[2] = tested on: Gurkenmehltau (Erysiphe cichoracearum); assay: Versuch 3: activity against cucumber powdery mildew on cucumber seedlings; format: in vivo; conditions: 0,025 %ige Spritzbrühe; sprayed about 20 h after inoculation; assessed after 21 days; value given as 'beispielsweise'
Text: Blätter von in Töpfen gewachsenen Gurkenkeimlingen der Sorte "Chinesische Schlange" wurden im Zweiblattstadium mit einer Sporensuspension des Gurkenmehltaus (Erysiphe cichoracearum) besprüht. Nach etwa 20 Stunden wurden die Versuchspflanzen mit wäßriger Spritzbrühe, die 80 % Wirkstoff und 20 % Emulgiermittel in der Trockensubstanz enthielt, bis zur Tropfnässe besprüht. Nach dem Antrocknen des J Spritzbelages wurden sie anschließend im Gewächshaus bei Temperaturen zwischen 20 und 22^00 und 70 bis 80 % relativer Luftfeuchtigkeit aufgestellt. Zur Beurteilung der Wirksamkeit der neuen Stoffe wurde das Ausmaß der Pilzentwicklung nach 21 Tagen beurteilt.

Botrytis cinerea = assay: Versuch 4: activity against Botrytis cinerea on paprika seedlings; format: in vivo; conditions: 0,05 %ige Spritzbrühe; sprayed before inoculation; assessed after 5 days; value given as 'beispielsweise'
Text: Paprikasämlinge der Sorte "Neusiedler Ideal Elite" wurden, nachdem sich 4 bis 5 Blätter gut entwickelt hatten, mit wäßrigen Suspensionen, die 80 % Wirkstoff und 20 % Emulgiermittel in der Trockensubstanz enthielten, tropfnaß gespritzt. Nach dem Antrocknen des Spritzbelages wurden die Pflanzen mit einer Konidienaufschwemmung des Pilzes Botrytis cenerea besprüht und bei 22 bis 24 C in eine Kammer mit hoher Luftfeuchtigkeit gestellt. Nach 5 Tagen hatte sich die Krankheit auf den unbehandelten Kontrollpflanzen so stark entwickelt, daß die entstandenen Blattnekrosen den überwiegenden Teil der Blätter bedeckten.

Epid. flocc. 157 = assay: Agar dilution test, minimal inhibitory concentration in vitro; format: cell-based; conditions: read-out: Minimale Hemmkonzentration (MHK) Epid. flocc. 157
Text: as §1

Trichoph. ment. 21 = assay: as above; format: cell-based; conditions: read-out: Minimale Hemmkonzentration (MHK) Trichoph. ment. 21
Text: as §1

Chaetomium globosum = assay: Versuch 6: fungal growth on malt extract agar containing active ingredient; format: cell-based; parameters: key: 0 = kein Pilzwachstum (Pilzmyzel abgetötet); 1 = geringes Pilzwachstum (bis 1/3 der Agaroberfläche bewachsen); 3 = mittleres Pilzwachstum (bis 2/3 der Agaroberfläche bewachsen); 5 = ungehemmtes Pilzwachstum (gesamte Agaroberfläche bewachsen); conditions: 40 ppm in 5 % malt extract agar; 5 days at 25 °C; growth score
Text: (§2) Die Wirkstoffe werden in Aceton gelöst, in Mengen von 40 ppm einem verflüssigten 5 %igen Malzextraktagar zugesetzt. Der Agar wird in Petrischalen ausgegossen und nach dem Erstarren werden die fungizidhaltigen Nähragarplatten zentral mit Myzel der holzzerstörenden Pilze Coniophora puteana und Trametes versicolor, des Moderfäule und Stockflecken verursachenden Pilzes Chaetomium globosum sowie mit Sporen des grünen Holzschimmels Trichoderma viride beimpft.
(§3) Nach fünftägiger Bebrütung der Schalen bei 25 °C wird die Entwicklung der Pilzkolonien auf dem Nährboden im Vergleich mit der Kontrolle (ohne Wirkstoff-Zusatz) beurteilt: • 0 = kein Pilzwachstum (Pilzmyzel abgetötet) • 1 = geringes Pilzwachstum (bis 1/3 der Agaroberfläche bewachsen) • 3 = mittleres Pilzwachstum (bis 2/3 der Agaroberfläche bewachsen) • 5 = ungehemmtes Pilzwachstum (gesamte Agaroberfläche bewachsen)

Coniophora puteana = assay: as above; format: cell-based; parameters: key: 0 = kein Pilzwachstum (Pilzmyzel abgetötet); 1 = geringes Pilzwachstum (bis 1/3 der Agaroberfläche bewachsen); 3 = mittleres Pilzwachstum (bis 2/3 der Agaroberfläche bewachsen); 5 = ungehemmtes Pilzwachstum (gesamte Agaroberfläche bewachsen); conditions: 40 ppm in 5 % malt extract agar; 5 days at 25 °C; growth score
Text: as §2, §3

Trametes versicolor = assay: as above; format: cell-based; parameters: key: 0 = kein Pilzwachstum (Pilzmyzel abgetötet); 1 = geringes Pilzwachstum (bis 1/3 der Agaroberfläche bewachsen); 3 = mittleres Pilzwachstum (bis 2/3 der Agaroberfläche bewachsen); 5 = ungehemmtes Pilzwachstum (gesamte Agaroberfläche bewachsen); conditions: 40 ppm in 5 % malt extract agar; 5 days at 25 °C; growth score
Text: as §2, §3

Trichoderma viride = assay: as above; format: cell-based; parameters: key: 0 = kein Pilzwachstum (Pilzmyzel abgetötet); 1 = geringes Pilzwachstum (bis 1/3 der Agaroberfläche bewachsen); 3 = mittleres Pilzwachstum (bis 2/3 der Agaroberfläche bewachsen); 5 = ungehemmtes Pilzwachstum (gesamte Agaroberfläche bewachsen); conditions: 40 ppm in 5 % malt extract agar; 5 days at 25 °C; growth score
Text: as §2, §3

[3] = tested on: Weizenmehltau (Erysiphe graminis var. tritici); assay: Versuch 1: activity against wheat powdery mildew on wheat seedlings; format: in vivo; conditions: 0,025; 0,006; 0,0015 %ige Spritzbrühen; sprayed 24 h before inoculation; assessed after 7 days; value given as 'beispielsweise'
Description: Blätter von in Töpfen gewachsenen Weizenkeimlingen der Sorte "Jubilar" wurden mit wäßriger Spritzbrühe, die 80 % (Gew.%) Wirkstoff und 20 % Emulgiermittel in der Trockensubstanz enthielt, besprüht und 24 Stunden nach dem Antrocknen des Spritzbelages mit Oidien (Sporen) des Weizenmehltaus (Erysiphe graminis var. tritici) bestäubt. Die Versuchspflanzen wurden anschließend im Gewächshaus bei Temperaturen zwischen 20 und 22 °C und 75 bis 80 % relativer Luftfeuchtigkeit aufgestellt. Nach 7 Tagen wurde das Ausmaß der Mehltauentwicklung ermittelt.

Clc1ccc(C2OC2(Cn2ccnc2)c2ccccc2)c(Cl)c1 (single isomer, unassigned) [Beispiel 6] gave an MIC (Abs. corym. 1) of 8 µg/mL (≈ 23.2 µM), an MIC (Aps.fum. 2) of 0.0625 µg/mL (≈ 0.181 µM) and an MIC (E.coli muta-flor) of over 128 µg/mL. For the same compound, the MIC (Microsp. ferrug. 5) was 0.0625 µg/mL (≈ 0.181 µM), the MIC (Mucor pus. 6) was 4 µg/mL (≈ 11.6 µM) and the MIC (Staph. aur. SG 511) was 16 µg/mL (≈ 46.3 µM). The MIC (Strept. faec. 8043) was 16 µg/mL (≈ 46.3 µM), the MIC (Cand.alb. H) was 32 µg/mL (≈ 92.7 µM) and the MIC (Cand.alb. M) was under 0.0039 µg/mL. The MIC (Trichom. vag.) was over 16 µg/mL, the “fungizide Wirkung gegen Weizenbraunrost” value [1] was 100% and the “fungizide Wirkung gegen Gurkenmehltau” value [2] was 100%. The “fungizide Wirkung gegen Botrytis cinerea an Paprika” value (Botrytis cinerea) was 97%.
Clc1ccc(C2OC2(Cn2ccnc2)c2ccc(Br)cc2)c(Cl)c1 (single isomer, unassigned) [Beispiel 7] showed an MIC (Abs. corym. 1) of 1 µg/mL (≈ 2.36 µM), an MIC (Aps.fum. 2) of 4 µg/mL (≈ 9.43 µM) and an MIC (E.coli muta-flor) of over 128 µg/mL. It also gave an MIC (Epid. flocc. 157) of 1 µg/mL (≈ 2.36 µM), an MIC (Microsp. ferrug. 5) of 0.25 µg/mL (≈ 0.589 µM) and an MIC (Mucor pus. 6) of 2 µg/mL (≈ 4.72 µM). The MIC (Staph. aur. SG 511) was 16 µg/mL (≈ 37.7 µM), the MIC (Strept. faec. 8043) was 16 µg/mL (≈ 37.7 µM) and the MIC (Trichoph. ment. 21) was 1 µg/mL (≈ 2.36 µM). For the same compound, the MIC (Cand.alb. H) was 16 µg/mL (≈ 37.7 µM), the MIC (Cand.alb. M) was 0.0156 µg/mL (≈ 0.0368 µM) and the MIC (Trichom. vag.) was over 16 µg/mL.
For Clc1ccc(C2(Cn3ccnc3)OC2c2ccccc2)cc1 (single isomer, unassigned) [Beispiel 9], the MIC (Abs. corym. 1) was 4 µg/mL (≈ 12.9 µM), the MIC (Aps.fum. 2) was 16 µg/mL (≈ 51.5 µM) and the MIC (E.coli muta-flor) was over 128 µg/mL. The MIC (Epid. flocc. 157) was 1 µg/mL (≈ 3.22 µM), the MIC (Microsp. ferrug. 5) was 0.25 µg/mL (≈ 0.804 µM) and the MIC (Mucor pus. 6) was 2 µg/mL (≈ 6.44 µM). The MIC (Staph. aur. SG 511) was 128 µg/mL (≈ 412 µM), the MIC (Strept. faec. 8043) was 128 µg/mL (≈ 412 µM) and the MIC (Trichoph. ment. 21) was 1 µg/mL (≈ 3.22 µM). The MIC (Cand.alb. H) was over 1 µg/mL and the MIC (Trichom. vag.) was over 16 µg/mL.
In the case of Clc1ccc(C2OC2(Cn2cncn2)c2ccc(Br)cc2)c(Cl)c1 (single isomer, unassigned) [Beispiel 10], the “fungizide Wirkung gegen Weizenbraunrost” value [1] is reported as 100%, the “fungizide Wirkung gegen Gurkenmehltau” value [2] is reported as 100% and the “fungizide Wirkung gegen Botrytis cinerea an Paprika” value (Botrytis cinerea) is reported as 97%. The “Wirksamkeit gegen Chaetomium globosum” value (Chaetomium globosum) was 0, the “Wirksamkeit gegen Coniophora puteana” value (Coniophora puteana) was 0 and the “Wirksamkeit gegen Trametes versicolor” value (Trametes versicolor) was 0. For the same compound, the “Wirksamkeit gegen Trichoderma viride” value (Trichoderma viride) was 0.
In the case of CC(C)(C)C1(Cn2ccnc2)OC1c1ccc(Cl)cc1 (single isomer, unassigned) [Beispiel 14], the “fungizide Wirkung gegen Gurkenmehltau” value [2] is reported as 100%, the “Wirksamkeit gegen Chaetomium globosum” value (Chaetomium globosum) is reported as 0 and the “Wirksamkeit gegen Coniophora puteana” value (Coniophora puteana) is reported as 0. The “Wirksamkeit gegen Trametes versicolor” value (Trametes versicolor) was 0 and the “Wirksamkeit gegen Trichoderma viride” value (Trichoderma viride) was 0.
With CC(C)(C)C1(Cn2cncn2)OC1c1ccccc1 (single isomer, unassigned) [Beispiel 15] the “fungizide Wirkung gegen Gurkenmehltau” value [2] was 100%, the “Wirksamkeit gegen Chaetomium globosum” value (Chaetomium globosum) was 3 and the “Wirksamkeit gegen Coniophora puteana” value (Coniophora puteana) was 0. The “Wirksamkeit gegen Trametes versicolor” value (Trametes versicolor) was 0 and the “Wirksamkeit gegen Trichoderma viride” value (Trichoderma viride) was 1.
In the case of CC1(Cn2cncn2)OC1c1ccc(Cl)cc1Cl (single isomer, unassigned) [Beispiel 23], the “Wirksamkeit gegen Chaetomium globosum” value (Chaetomium globosum) is reported as 0, the “Wirksamkeit gegen Coniophora puteana” value (Coniophora puteana) is reported as 0 and the “Wirksamkeit gegen Trametes versicolor” value (Trametes versicolor) is reported as 0. For the same compound, the “Wirksamkeit gegen Trichoderma viride” value (Trichoderma viride) was 0.
Fc1ccc(C2OC2(Cn2cncn2)c2ccc(Cl)cc2)cc1 (single isomer, unassigned) [Beispiel 45] was tested, and the “fungizide Wirkung gegen Gurkenmehltau” value [2] was 100%, the “Wirksamkeit gegen Chaetomium globosum” value (Chaetomium globosum) was 1 and the “Wirksamkeit gegen Coniophora puteana” value (Coniophora puteana) was 0. The “Wirksamkeit gegen Trametes versicolor” value (Trametes versicolor) was 0 and the “Wirksamkeit gegen Trichoderma viride” value (Trichoderma viride) was 0.
Clc1ccc(C2(Cn3ccnc3)OC2c2ccc(Br)cc2)cc1 (single isomer, unassigned) [Beispiel 48] was tested, and the “Wirksamkeit gegen Chaetomium globosum” value (Chaetomium globosum) was 0, the “Wirksamkeit gegen Coniophora puteana” value (Coniophora puteana) was 0 and the “Wirksamkeit gegen Trametes versicolor” value (Trametes versicolor) was 0. The “Wirksamkeit gegen Trichoderma viride” value (Trichoderma viride) was 0.
With Clc1ccc(C2(Cn3ccnc3)OC2c2ccc(Br)cc2)c(Cl)c1 (single isomer, unassigned) [Beispiel 49] the “Wirksamkeit gegen Chaetomium globosum” value (Chaetomium globosum) was 1, the “Wirksamkeit gegen Coniophora puteana” value (Coniophora puteana) was 0 and the “Wirksamkeit gegen Trametes versicolor” value (Trametes versicolor) was 0. The “Wirksamkeit gegen Trichoderma viride” value (Trichoderma viride) was 0.
For OC(Cn1ccnc1)c1ccc(Cl)cc1Cl (stereo not shown) [Wirkstoff A, 1-(2,4-Dichlorphenyl)-2-(imidazol-1-yl)-ethan-1-ol, reference compound], the “fungizide Wirkung gegen Weizenmehltau” value [3] was 90%, the “fungizide Wirkung gegen Weizenbraunrost” value [1] was 50% and the “fungizide Wirkung gegen Botrytis cinerea an Paprika” value (Botrytis cinerea) was 70%.
O=C(Cn1cncn1)c1ccc(Cl)cc1Cl [Wirkstoff B, (2,4-Dichlorphenyl)-1,2,4-triazol-1-yl-methylketon, reference compound] was tested, and the “fungizide Wirkung gegen Weizenmehltau” value [3] was 90%, the “fungizide Wirkung gegen Weizenbraunrost” value [1] was 50% and the “fungizide Wirkung gegen Botrytis cinerea an Paprika” value (Botrytis cinerea) was 70%.
